The subject of experiment [1] is P. aeruginosa strains (7). Briefly: microbe, parasite or virus in culture. The format is cell-based, Pseudomonas aeruginosa. The following applies: agent alone; range over strains. On the procedure: (§1) The bacterial inoculum was established by the dilution method from actively-growing cultures in Mueller-Hinton broth, standardized with 0.5 McFarland turbidity standard as described in the CLSI method M26-A.
(§2) To determine the prevention of biofilm formation, both the bacterial inoculum and the antimicrobial agents were added simultaneously to the plates. The plates were incubated at 37° C. for 24 h and the optical density was read at 625 nm on a microtitre plate reader (BioTek Powerwave XS, Winooski, USA). The MIC was obtained as the lowest concentration of antimicrobial showing total inhibition of bacterial growth.
(§3) The FIC corresponds to an interaction coefficient indicating whether the combination of antimicrobial agents is synergistic, additive, antagonist or neutral. The FIC is determined by comparing the activity of an agent in combination (MIC of agent A+agent B) with the activity of the agent alone (MIC of agent A or agent B) as follow (Singh et al., 2000):
(§4) FIC=MICA[combination]/MICA[alone]+MICB[combination]/MICB[alone]
(§5) Additive combinations of two antimicrobial agents are indicated by a FIC index of 1, whereas a FIC index <1 indicates synergistic combinations. Neutral combinations would give a FIC between 1 and 4, a FIC index higher than 4 indicates antagonist effects between the two antimicrobial agents.
(§6) Summary of the activity of the tested antimicrobial agents against the Gram-negative P. aeruginosa strains and the Gram-positive Staphylococcus spp. The number into brackets indicates the maximum number of strains tested. MIC: minimum inhibition concentration; MBEC: minimum biofilm eradication concentration; FIC: fractional inhibitory concentration.

Experiment [2] deals with Staphylococcus spp (4). Briefly: microbe, parasite or virus in culture. Type of experiment: cell-based. The following applies: agent alone; range over strains. On the procedure: as §1, §2, §3, §4, §5, §6
The test system of experiment [3] is P. aeruginosa strains (7) biofilm cells. The format is cell-based, Pseudomonas aeruginosa. As to conditions: agent alone. On the procedure: (§7) The FIC was also calculated to assess the interaction of two antimicrobial agents in combination against bacterial biofilms. The same formulae applied, using MBEC instead of MIC.
(§8) A total volume of 100 μl bacterial inoculum in Mueller-Hinton was added to each well of 96-well plates (challenge plates) and the plates were incubated at 37° C. for 24 h on a gyrorotary shaking platform (Grant-bio PS-3D, Shepreth, England) at 24 rpm to allow for biofilm formation.
(§9) The challenge plates were then rinsed once with sterile PBS (lx) and two-fold serial dilutions of antimicrobial agents in Mueller-Hinton were added to the challenge plates. The challenge plates were incubated at 37° C. for 24 h on a gyrorotary shaking platform (Grant-bio PS-3D, Shepreth, England) at 24 rpm.
(§10) The supernatants from each of the challenge plates were transferred into fresh plates and the optical density was measured at 625 nm on a microtitre plate reader (BioTek Powerwave XS, Winooski, USA). The MBEC was obtained by the lowest concentration of antimicrobial showing no bacterial growth.
as §6

In experiment [4] the test system is Staphylococcus spp (4) biofilm cells. Type of experiment: cell-based. As to the method:
as §7, §8, §9, §10, §6

Experiment [5] relates to P. aeruginosa strains (7) persister cells. Put plainly: Persister cells in biofilms (live/dead staining), summary over strains. As to conditions: agent alone. Type of experiment: cell-based, Pseudomonas aeruginosa. On the procedure: (§11) Following transfer of the supernatant from the challenge plates, the biofilms were rinsed once with sterile PBS (lx) and 100 μl of BacLight live/dead fluorescent staining solution (Invitrogen, Paisley, UK) containing 4 μM SYTO9 and 20 μM propidium iodide (PI) in sterile PBS (lx) were added to the wells of the challenge plates. The plates were incubated at room temperature in the dark for 15 min and the fluorescence was read at 485(ex)/528(em) and 485(ex)/645(em) for SYTO9 and PI fluorescence, respectively on a fluorescence microtitre plate reader (BioTek Synergy HT, Winooski, USA) with the sensitivity set at 50 and bottom optics position was selected. Direct observation of the biofilms with an Axiovert 40 fluorescence microscope (Zeiss, Gottingen, Germany) allowed identifying the presence of live and dead bacteria and pictures of the biofilms were taken at 100 to 400-fold magnification.
(§12) The relative viability of persister cells was determined by the live/dead fluorescence measurements ratio and microscopic observations were used to confirm the presence or absence of live cells.
as §6

In experiment [6] the test system is P. aeruginosa ATCC BAA-47 (PAO1) biofilm cells. Briefly: MBEC against 24 h-old biofilm. The format is cell-based, Pseudomonas aeruginosa. As to conditions: agent alone; FIG. 5. On the procedure: as §7, §8, §9, §10
The assessment of the activity of NP108 and cysteamine against bacterial biofilms was carried out with 24 h-old biofilms and the activity of both compounds in combination was also determined. The activity of the antimicrobial agents against bacterial biofilms was determined by their activity against the biofilm cells and against the persister cells.

Experiment [7] relates to P. aeruginosa ATCC BAA-47 (PAO1) persister cells. Briefly: Relative viability of persister cells (SYTO9/PI live/dead fluorescence, microscopy). Type of experiment: cell-based, Pseudomonas aeruginosa. The following applies: agent alone; FIG. 6, FIG. 8. As to the method:
as §11, §12
The activity of NP108 and cysteamine against the persister cells was assessed using a fluorescence staining method to determine the relative viability of the cells. The nucleic acid-binding fluorescent molecules used were SYTO9 and PI, which penetrate all bacterial cells (green fluorescence) and membrane-disrupted cells (red fluorescence), respectively.

Turning to `N=C(N)NCCC[C@@H](N)C(=O)N[C@H](CCCNC(=N)N)C(=O)N[C@H](CCCNC(=N)N)C(=O)N[C@H](CCCNC(=N)N)C(=O)N[C@H](CCCNC(=N)N)C(=O)N[C@H](CCCNC(=N)N)C(=O)N[C@H](CCCNC(=N)N)C(=O)N[C@H](CCCNC(=N)N)C(=O)N[C@H](CCCNC(=N)N)C(=O)N[C@H](CCCNC(=N)N)C(=O)N[C@H](CCCNC(=N)N)C(=O)N[C@H](CCCNC(=N)N)C(=O)N[C@H](CCCNC(=N)N)C(=O)O` [NP339, dRdRdRdRdRdRdRdRdRdRdRdRdR], the “MIC, P. aeruginosa strains (7)” value in experiment [1] stood at 62.5 µg/mL. Further, the “MIC, Staphylococcus spp (4)” value in experiment [2] is 4 to 128 µg/mL. In addition, the “MBEC, P. aeruginosa strains (7)” value in experiment [3] is on record as >5,000 μg/ml. The “MBEC against biofilms of 3 Staphylococcus species” value in experiment [4] (FIG. 5, range over 3 species) was 156 to 625 µg/mL. The “MBEC, Staphylococcus spp (4)” value in experiment [4] (agent alone, biofilm cells) lay within 156 to 625 µg/mL. The “Persisters, active concentration, P. aeruginosa strains (7)” value in experiment [5] stood at 625 µg/mL. Moreover, in experiment [6], the “MBEC, P. aeruginosa BAA-47 (PAO1); highest dose tested not sufficient to inhibit 100% of the biofilm cells” value is more than 5 mg/mL. Also, the “concentration that inhibits the viability of P. aeruginosa BAA-47 (PAO1) persister cells” value in experiment [7] turned out to be 625 µg/mL.

These data come from patent publication US20190175528A1, “INHIBITION OF BIOFILM ORGANISMS” (NovaBiotics Limited, priority 2009, published 2019).
